Experimental data published in patent publication US8962648B2, “Tricyclic compounds and PBK inhibitors containing the same” (OncoTherapy Science, Inc., priority 2010, dated 2015).
Where a name gives a salt, the structure may show the parent alone. Read-outs that look alike come from different tables or passages of the source.

Assays:
T47D cells = test: Cell-based assay, cellular growth (Cell Counting Kit-8, 72 hours)
Procedure: (§1) 100 micro-L of cell suspension was seeded onto 96-well microtiter plate (ViewPlate-96FTC, PerkinElmer). […] Cellular growth was determined using Cell Counting Kit-8 (DOJINDO) at 72 hours after the exposure of the candidate inhibitors. […] Accurate IC50 values were calculated as described previously.

A549 cells = test: as above
Procedure: as §1

BT-549 cells = test: as above; conditions: Homo sapiens, BT549 cells
Procedure: as §1

HT-1197 cells = test: Cell-based assay, cellular growth (Cell Counting Kit-8, 72 hours), PBK-negative control cells
Procedure: as §1

PBK = PBK (Homo sapiens (Human), UniProt Q96KB5); test: Kinase assay (IMAP fluorescence polarization, FITC-labeled histone H3 peptide); format: biochemical
PBK, sequence (Q96KB5 whole entry): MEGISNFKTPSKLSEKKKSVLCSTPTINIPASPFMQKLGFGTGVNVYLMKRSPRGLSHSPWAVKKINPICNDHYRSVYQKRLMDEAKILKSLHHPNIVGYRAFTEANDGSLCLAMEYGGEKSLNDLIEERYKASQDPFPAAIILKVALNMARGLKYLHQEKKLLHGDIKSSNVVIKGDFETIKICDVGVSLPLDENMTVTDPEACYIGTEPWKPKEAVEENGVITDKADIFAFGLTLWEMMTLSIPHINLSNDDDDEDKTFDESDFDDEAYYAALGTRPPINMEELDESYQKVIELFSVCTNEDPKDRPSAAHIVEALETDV
Procedure: PBK activity was determined in the presence or absence of compounds using fluorescein isothiocyanate-labeled (FITC-labeled) histone H3 peptide as a substrate. […] The serially diluted compounds, 0.8 ng/micro-L PBK (Carna Biosciences) and 100 nM FITC-labeled histone H3 peptide were reacted in a reaction buffer (20 mM HEPES, 0.01% Tween-20, 0.3 mM MgCl2, 2 mM dithiothreitol, 50 micro-M ATP, pH 7.4) at room temperature for 1 hour. The reaction was stopped by the addition of three fold assay volume of progressive binding solution. […] IC50 values were calculated by nonlinear four parameter fit using SigmaPlot, version 10.0 (Systat Software, Inc.).

[1] = PBK 0.8 ng/micro-L, 50 micro-M ATP, 100 nM FITC-labeled histone H3 peptide, room temperature 1 hour

Row | SMILES | IC50 (T47D cells; Homo sapiens, T47D, 72 h) [nM] | IC50 (A549 cells; Homo sapiens, A549, 72 h) [nM] | IC50 (BT-549 cells) [nM] | IC50 (HT-1197 cells; Homo sapiens, HT1197, 72 h) [nM] | IC50 (PBK; [1]) [nM] | IC50 (T47D cells; hydrobromide) [nM] | IC50 (A549 cells; hydrobromide) [nM] | IC50 (HT-1197 cells; HT1197 cells (PBK-negative control), hydrobromide) [nM] | IC50 (PBK; PBK 0.8 ng/micro-L, 50 micro-M ATP, 100 nM FITC-labeled histone H3 peptide, room temperature 1 hour, hydrobromide) [nM] | IC50 (PBK) [nM]
1 | CNC[C@H](C)c1ccc(-c2c(OC)cc(C)c3[nH]c(=O)c4sccc4c23)cc1 [Compound 1298, (R)-8-methoxy-6-methyl-9-(4-(1-(methylamino)propan-2-yl)phenyl)thieno[2,3-c]quinolin-4(5H)-one hydrochloride] | 140 | 68 | 64 | 160 | 32 | – | – | – | – | –
2 | Cc1cc(O)c(-c2ccc(C3CCCNC3)cc2)c2c1[nH]c(=O)c1sccc12 (centres unmarked) [Compound 1302, 8-hydroxy-6-methyl-9-(4-(piperidin-3-yl)phenyl)thieno[2,3-c]quinolin-4(5H)-one hydrochloride] | 830 | 970 | 740 | 1500 | 75 | – | – | – | – | –
3 | Cc1cc(O)c(-c2ccc([C@H](C)CN)c(F)c2)c2c1[nH]c(=O)c1sccc12 [Compound 1303, (S)-9-(4-(1-aminopropan-2-yl)-3-fluorophenyl)-8-hydroxy-6-methylthieno[2,3-c]quinolin-4(5H)-one] | 130 | 92 | 81 | 510 | 14 | – | – | – | – | –
4 | COc1cc(C)c2[nH]c(=O)c3sccc3c2c1-c1ccc([C@@H](C)CN)cc1 [Compound 1305, (R)-9-(4-(1-aminopropan-2-yl)phenyl)-8-methoxy-6-methylthieno [2,3-c]quinolin-4(5H)-one hydrochloride] | 40 | 20 | 21 | 64 | 15 | – | – | – | – | –
5 | CNC[C@H](C)c1ccc(-c2c(O)cc(C)c3[nH]c(=O)c4sccc4c23)cc1 [Compound 1307, (R)-8-hydroxy-6-methyl-9-(4-(1-(methylamino)propan-2-yl)phenyl)thieno [2,3-c]quinolin-4(5H)-one hydrobromide] | – | – | 42 | – | – | 85 | 57 | 150 | 18 | –
6 | COc1cc(C)c2[nH]c(=O)c3sccc3c2c1-c1ccc([C@H](C)CN)c(F)c1 [Compound 1310, (S)-9-(4-(1-aminopropan-2-yl)-3-fluorophenyl)-8-methoxy-6-methylthieno[2,3-c]quinolin-4(5H)-one hydrochloride] | 800 | 370 | 400 | 890 | – | – | – | – | – | 54
7 | Cc1cc(O)c(-c2ccc([C@@H](C)CN(C)C)c(F)c2)c2c1[nH]c(=O)c1sccc12 [Compound 1311, (R)-9-(4-(1-(dimethylamino)propan-2-yl)-3-fluorophenyl)-8-hydroxy-6-methylthieno[2,3-c]quinolin-4(5H)-one hydrochloride] | 70 | 45 | 37 | 110 | – | – | – | – | – | 17
8 | CNC[C@H](C)c1ccc(-c2c(O)cc(C)c3[nH]c(=O)c4sccc4c23)cc1F [Compound 1315, (R)-9-(3-fluoro-4-(1-(methylamino)propan-2-yl)phenyl)-8-hydroxy-6-methylthieno[2,3-c]quinolin-4(5H)-one hydrochloride] | 41 | 34 | 24 | 100 | – | – | – | – | – | 8.1
9 | CNC[C@H](C)c1ccc(-c2c(OC)cc(C)c3[nH]c(=O)c4sccc4c23)cc1F [Compound 1316, (R)-9-(3-fluoro-4-(1-(methylamino)propan-2-yl)phenyl)-8-methoxy-6-methylthieno[2,3-c]quinolin-4(5H)-one hydrochloride] | 160 | 86 | 83 | 230 | – | – | – | – | – | 33
10 | COc1cc(C)c2[nH]c(=O)c3sccc3c2c1-c1ccc([C@@H](C)CN)c(F)c1 [Compound 1317, (R)-9-(4-(1-aminopropan-2-yl)-3-fluorophenyl)-8-methoxy-6-methylthieno[2,3-c]quinolin-4(5H)-one hydrochloride] | 72 | 42 | 36 | 100 | – | – | – | – | – | 22
